{
  "source": "patent US20230405143A1",
  "about": "“TYROSINE-BASED ANTIBODY CONJUGATES” (Synaffix B.V., priority 2020, published 2023)",
  "assay": "stability of linker-payload under acidic sample work-up and analysis (MS / RP-HPLC)",
  "type": "physicochemical",
  "conditions": "note to FIG. 26",
  "method": "Note: *BCN-HS-PEG2-va-PABC-PBD is not stable under the acidic conditions used in sample work-up and analysis. Therefore, some peak broadening is observed, so conversion was determined by the amount of starting material left.\nPrior to RP-HPLC analysis, IgG (10 μL, 1 mg/mL in PBS pH 7.4) was added to 12.5 mM DTT, 100 mM TrisHCl pH 8.0 (40 μL) and incubated for 15 minutes at 37° C. The reaction was quenched by adding 49% acetonitrile, 49% water, 2% formic acid (50 μL). RP-HPLC analysis was performed on an Agilent 1100 series (Hewlett Packard). The sample (10 μL) was injected with 0.5 mL/min onto Bioresolve RP mAb 2.1*150 mm 2.7 μm (Waters) with a column temperature of 70° C. A linear gradient was applied in 16.8 minutes from 30 to 54% acetonitrile in 0.1% TFA and water.\nPrior to mass spectral analysis, IgG was treated with IdeS, which allows analysis of the Fc/2 fragment. For analysis of the Fc/2 fragment, a solution of 20 μg (modified) IgG was incubated for 1 hour at 37° C. with IdeS/Fabricator™ (1.25 U/μL) in PBS pH 6.6 in a total volume of 10 μL. Samples were diluted to 80 μL followed by analysis electrospray ionization time-of-flight (ESI-TOF) on a JEOL AccuTOF. Deconvoluted spectra were obtained using Magtran software.",
  "data": [
    {"substance": "BCN-HS-PEG2-va-PABC-PBD", "values": [
      {"measurement": "stability under the acidic conditions used in sample work-up and analysis", "value": "not stable"}
    ]}
  ]
}
